Test results from US5324648A, “Substituted isocoumarins as serine protease inhibitors and anti-inflammatory agents” (Georgia Tech Research Corporation, priority 1992, dated 1994).
Where two headings read alike, the source gives them in different places.

How the values were obtained:
human thrombin = molecular target: T1, human thrombin (Homo sapiens, UniProt P00734); assay: Inactivation rate of human thrombin; type: biochemical; conditions: Table VIII; pH 7.5, 25° C; [I] 1.2-54 μM; read-out: kobs/[I]
T1 construct: human thrombin
Method: (§1) Inactivation rates of serine proteases by substituted isocoumarins were measured by the incubation method. An aliquot of inhibitor (25 or 50 μl) in Me2 SO was added to a buffered enzyme solution (0.01-2.3 μM) to initiate the inactivation. Aliquots (50 μl) were withdrawn at various intervals and the residual enzymatic activity was measured. Me2 SO concentration in the reaction mixture was 8-12% (v/v). 0.1 Hepes, 0.01M CaCl2, pH 7.5 buffer was utilized for trypsin and coagulation enzymes. 0.1M Hepes, 0.5M NaCl, pH 7.5 was utilized for other serine proteases. The inhibitor concentrations are shown in all the tables. Peptide thioesters or peptide nitroanilides with appropriate sequence were used as substrates for various serine proteases. All peptide thioester hydrolysis rates were measured with assay mixtures containing 4,4'-dithiodipyridine (ε324 =19800M^-1 cm^-1; Grasetti & Murray, Arch. Biochem. Biophys. 119, pp 41-49 (1967)). Peptide 4-nitroanilide nitroanilide hydrolysis was measured at 410 nm (ε410 =8800M^-1 cm^-1; Erlanger et al., Arch. Biochem. Biophys. 95, pp 271-278 (1961)). First order inactivation rate constant (kobs) were obtained from plots of ln (vt /vo) vs time, and the correlation coefficients were greater than 0.98.
(§2) ^a Inhibition rates were measured in 0.1M Hepes, 0.01M CaCl2, pH
(§3) 7.5 buffer, 8% Me2 SO and at 25° C.

bovine thrombin = molecular target: T2, bovine thrombin (Bos taurus, UniProt P00735); assay: Inactivation rate of bovine thrombin; type: biochemical; conditions: Table VIII; pH 7.5, 25° C; [I] 1.2-54 μM; read-out: kobs/[I]
T2 construct: bovine thrombin
Method: as §1
(§4) ^a Conditions were as 0.1M Hepes, 0.01M CaCl2, pH 7.5 and 8-12%
(§5) Me2 SO and 25° C. Rate constants were measured by incubation
(§6) method unless otherwise noted. An aliquot of inhibitor was added to an
(§7) enzyme solution and aliquots removed with time and assayed for remaining
(§8) enzymatic activity. Firstorder rate constants, kobs were obtained
(§9) from the plots of ln(vt /vo) versus time.
as §2, §3

human factor Xa = molecular target: T3, human factor Xa (Homo sapiens, UniProt P00742); assay: Inactivation rate of human factor Xa; type: biochemical; conditions: Table VIII; pH 7.5, 25° C; [I] 3.6-44 μM; read-out: kobs/[I]
T3 construct: human factor Xa
Method: as §1, §4, §5, §6, §7, §8, §9, §2, §3

[1] = molecular target: T4, porcine pancreatic elastase (PPE) (Sus scrofa, UniProt P00772); assay: Inactivation of porcine pancreatic elastase (PPE); type: biochemical; conditions: Table X; after 20 min incubation
T4 construct: from tissue; host or cells: porcine pancreas (from the name)
Method: (§15) Inactivation rates of serine proteases by substituted isocoumarins were measured by the incubation method. An aliquot of inhibitor (25 or 50 μl) in Me2 SO was added to a buffered enzyme solution (0.01-2.3 μM) to initiate the inactivation. Aliquots (50 μl) were withdrawn at various intervals and the residual enzymatic activity was measured. Me2 SO concentration in the reaction mixture was 8-12% (v/v). 0.1 Hepes, 0.01M CaCl2, pH 7.5 buffer was utilized for trypsin and coagulation enzymes. 0.1M Hepes, 0.5M NaCl, pH 7.5 was utilized for other serine proteases. […] Peptide thioesters or peptide nitroanilides with appropriate sequence were used as substrates for various serine proteases. All peptide thioester hydrolysis rates were measured with assay mixtures containing 4,4'-dithiodipyridine (ε324 =19800M^-1 cm^-1 ; Grasetti & Murray, Arch. Biochem. Biophys. 119, pp 41-49 (1967)). Peptide 4-nitroanilide nitroanilide hydrolysis was measured at 410 nm (ε410 =8800M^-1 cm^-1 ; Erlanger et al., Arch. Biochem. Biophys. 95, pp 271-278 (1961)). First order inactivation rate constant (kobs) were obtained from plots of ln (vt /vo) vs time, and the correlation coefficients were greater than 0.98.
(§16) ^a Inactivation rates were measured at 0.1M Hepes, 0.5 NaCl, pH 7.5,
(§17) 8-12% Me2 SO and 25° C. by incubation method.
(§18) ^a Inhibition rates were measured in 0.1M Hepes, 0.05M NaCl, pH 7.5
buffer, 8-9% Me2 SO and at 25° C.
^a Inhibition constants were in 0.1M Hepes, 0.5M NaCl, pH 7.5 buffer,
8-9% Me2 SO and at 25° C.
^a Inhibition rates were measured in 0.1M Hepes, 0.5M NaCl, 2.5%
Me2 SO, pH 7,5 and at 25° C.
(§19) ^a Inhibition was measured in 0.1M Hepes, 0.5M NaCl, pH 7.5 buffer,
(§20) 5-10% Me2 SO and at 25° C. Suc--Val--Pro--Phe--NA (0.48 mM)
(§21) was used as the substrate for chymotrypsin and cat G.
^a Inhibition rates were measured in 0.1M Hepes, 0.5M NaCl, pH 7.5

chymotrypsin = chymotrypsin (Bos taurus, UniProt P00766); assay: Inactivation of chymotrypsin; type: biochemical, bovine; conditions: Table X, read-out: kobs/[I]
[2] = molecular target: recombinant human tissue plasminogen activator (Homo sapiens, UniProt P00750); assay: Inactivation rate of recombinant human tissue plasminogen activator; type: biochemical; conditions: for kinact/KI: pH 7.5, Table IX, pH 7.5, 25° C, [I] 3.5-5.0 μM, read-out: kobs/[I]
Method: as §1
^a Inactivation constants were measured at 0.1M Hepes, 0.5M NaCl (or
as §2
(§10) 7.5 buffer for human plasmin; 25 mM Phosphate, 0.5M NaCl, 1 mM EDTA, pH
(§11) 7.5 buffer for rat skin tryptase and 0.1M Hepes, 0.5M NaCl, pH 7.5 for
(§12) human lung tryptase, human skin tryptase and rt-PA. All enzymes were
(§13) assayed with ZArg-SBzl (0.07 mM) in the presence of 4,4dithiodipyridine
(§14) (0.33 mM). Reaction mixtures contained 8% Me2 SO and assays were […]

cathepsin G = molecular target: T5, cathepsin G (Homo sapiens, UniProt P08311); assay: Inactivation of cathepsin G; type: biochemical; conditions: Table X; pH 7.5, 25° C; [I] 33-46 μM; read-out: kobs/[I]
T5 construct: from tissue; host or cells: human leukocytes
T5 sequence (P08311 21-255): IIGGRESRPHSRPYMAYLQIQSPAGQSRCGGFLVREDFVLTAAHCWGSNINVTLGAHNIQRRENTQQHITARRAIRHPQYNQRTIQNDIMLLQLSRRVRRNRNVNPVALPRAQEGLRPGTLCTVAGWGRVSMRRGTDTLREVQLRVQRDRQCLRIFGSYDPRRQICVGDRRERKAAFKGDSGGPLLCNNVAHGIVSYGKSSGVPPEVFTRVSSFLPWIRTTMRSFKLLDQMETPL
Method: as §15, §16, §17
and assayed for remaining activity.
as §18
buffer, 8-9% Me2 SO and at 25° C.
Me2 SO, pH 7,5 and at 25° C.
as §19, §20, §21

human lung tryptase = assay: Inactivation rate of human lung tryptase; type: biochemical; conditions: Table IX; for percentage of inhibition: not time dependent, at 0.34-5.0 μM; for kobs/[I]: pH 7.5, 25° C, [I] 0.42-0.47 μM
Method: as §1
^a Inactivation rates were measured at 0.1M Hepes, 0.5M NaCl, pH 7.5
buffer, 8% Me2 SO and 25° C.
as §2, §10, §11, §12, §13, §14

[3] = molecular target: T6, human leukocyte elastase (HLE) (Homo sapiens, UniProt P08246); assay: Inactivation of human leukocyte elastase (HLE); type: biochemical; conditions: Table X; pH 7.5, 25° C; [I] 2.1-42 μM; read-out: kobs/[I]
T6 construct: from tissue; host or cells: human leukocytes (from the name)
T6 sequence (P08246 30-267): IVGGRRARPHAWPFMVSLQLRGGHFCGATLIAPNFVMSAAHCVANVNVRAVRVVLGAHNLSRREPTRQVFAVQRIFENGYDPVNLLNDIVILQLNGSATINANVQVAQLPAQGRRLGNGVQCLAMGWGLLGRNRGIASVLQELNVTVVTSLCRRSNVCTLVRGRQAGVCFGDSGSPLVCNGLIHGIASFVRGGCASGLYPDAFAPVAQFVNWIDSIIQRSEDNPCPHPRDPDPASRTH

rat skin tryptase = molecular target: T7, rat skin tryptase (Rattus norvegicus, UniProt P27435); assay: Inactivation rate of rat skin tryptase; type: biochemical; conditions: pH 7.5, Table IX; pH 7.5, 25° C; [I] 0.42-0.51 μM; read-out: kobs/[I]
T7 construct: from tissue; host or cells: rat skin
Method: as §1
^b Inactivation rates were measured at 25 mM phosphate, 0.5M NaCl, 1
mM EDTA, pH 7.5 buffer, 9% Me2 SO and 25° C.
as §2, §10, §11, §12, §13, §14

bovine trypsin = molecular target: T8, bovine trypsin (Bos taurus, UniProt P00760); assay: Inactivation rate of bovine trypsin; type: biochemical; conditions: Table VIII; pH 7.5, 25° C; [I] 1.1-4.6 μM; read-out: kobs/[I]
T8 sequence (P00760 24-246): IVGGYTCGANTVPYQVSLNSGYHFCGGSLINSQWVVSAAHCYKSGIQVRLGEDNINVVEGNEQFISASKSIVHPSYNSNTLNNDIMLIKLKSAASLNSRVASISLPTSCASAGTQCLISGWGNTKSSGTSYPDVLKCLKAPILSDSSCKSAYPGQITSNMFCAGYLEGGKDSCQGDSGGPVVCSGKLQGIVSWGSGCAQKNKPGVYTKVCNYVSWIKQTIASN
Method: as §1, §4, §5, §6, §7, §8, §9, §2, §3

[4] = Spontaneous hydrolysis in Hepes buffer; type: physicochemical; conditions: 0.1 Hepes, 0.5M NaCl, pH 7.5, 9% Me2SO, 25° C
Method: ^a Conditions were 0.1 Hepes, 0.5M NaCl, pH 7.5 and 9% Me2 SO at
25° C. Spontaneous hydrolysis rates were measured
spectrophotometrically by monitoring the decrease in absorbance due to th
isocoumarin ring system (wavelength 335-380 nm) using the firstorder rate

T7 sequence (P27435 29-273): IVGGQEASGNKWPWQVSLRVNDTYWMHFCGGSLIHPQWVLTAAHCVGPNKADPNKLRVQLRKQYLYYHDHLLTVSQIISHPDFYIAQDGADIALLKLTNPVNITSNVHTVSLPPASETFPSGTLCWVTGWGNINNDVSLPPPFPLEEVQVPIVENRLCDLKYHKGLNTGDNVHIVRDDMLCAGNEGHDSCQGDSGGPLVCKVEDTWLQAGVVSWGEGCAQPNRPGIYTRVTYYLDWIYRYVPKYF
Sequence of recombinant human tissue plasminogen activator (P00750 36-562): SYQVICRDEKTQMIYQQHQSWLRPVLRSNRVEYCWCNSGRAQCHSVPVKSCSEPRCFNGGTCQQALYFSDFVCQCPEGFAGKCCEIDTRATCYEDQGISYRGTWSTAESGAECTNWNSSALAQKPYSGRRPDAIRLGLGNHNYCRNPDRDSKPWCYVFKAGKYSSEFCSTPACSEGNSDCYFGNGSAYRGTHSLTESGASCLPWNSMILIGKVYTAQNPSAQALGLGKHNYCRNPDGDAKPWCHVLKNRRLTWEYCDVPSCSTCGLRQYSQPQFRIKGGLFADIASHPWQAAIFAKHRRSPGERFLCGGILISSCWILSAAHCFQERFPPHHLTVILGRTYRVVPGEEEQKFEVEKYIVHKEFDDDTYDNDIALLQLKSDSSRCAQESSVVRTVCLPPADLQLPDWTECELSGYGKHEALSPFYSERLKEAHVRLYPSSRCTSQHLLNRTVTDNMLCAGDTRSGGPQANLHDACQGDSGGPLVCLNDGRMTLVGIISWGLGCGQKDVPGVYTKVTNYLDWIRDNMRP
T4 sequence (P00772 27-266): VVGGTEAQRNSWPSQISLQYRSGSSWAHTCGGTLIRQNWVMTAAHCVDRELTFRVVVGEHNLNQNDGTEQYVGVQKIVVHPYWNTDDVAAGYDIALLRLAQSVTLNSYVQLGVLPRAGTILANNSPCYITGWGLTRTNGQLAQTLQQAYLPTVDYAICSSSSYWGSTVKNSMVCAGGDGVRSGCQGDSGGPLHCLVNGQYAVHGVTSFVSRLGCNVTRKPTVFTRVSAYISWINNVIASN
T3 sequence (P00742 235-488 limits assumed): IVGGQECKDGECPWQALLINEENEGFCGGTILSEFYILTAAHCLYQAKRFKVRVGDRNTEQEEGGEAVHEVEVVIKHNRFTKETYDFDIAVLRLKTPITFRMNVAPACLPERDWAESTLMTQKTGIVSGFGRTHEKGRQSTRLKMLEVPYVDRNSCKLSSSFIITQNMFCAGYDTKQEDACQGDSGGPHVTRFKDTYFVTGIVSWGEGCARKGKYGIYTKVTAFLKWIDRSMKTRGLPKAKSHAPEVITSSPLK
T3 sequence (P00742 41-179 partner limits assumed): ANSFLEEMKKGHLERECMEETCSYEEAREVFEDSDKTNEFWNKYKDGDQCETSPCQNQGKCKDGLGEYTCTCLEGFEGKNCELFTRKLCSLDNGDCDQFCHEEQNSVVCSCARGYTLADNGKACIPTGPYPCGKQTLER

CC(C)NC(=O)Nc1ccc2c(Cl)c(OCCSC(=N)N)oc(=O)c2c1 [(CH3)2 CHNHCONH-CiTEtOIC, 7-(isopropylcarbamoylamino)-4-chloro-3-(2-isothiureidoethoxy)isocoumarin]
kinact/KI (human thrombin): 5000 M⁻¹ s⁻¹
kinact/KI (bovine thrombin): 4100 M⁻¹ s⁻¹

C[C@H](N)C(=O)N[C@@H](C)C(=O)Nc1ccc2c(Cl)c(OCCSC(=N)N)oc(=O)c2c1 [Ala--Ala--NH-CiTEtOIC, 7-(L-alanyl-L-alanylamino)-4-chloro-3-(2-isothiureidoethoxy)isocoumarin]
kinact/KI (human factor Xa): 1490 M⁻¹ s⁻¹
kinact/KI (human thrombin): 880 M⁻¹ s⁻¹
kinact/KI (bovine thrombin): 1070 M⁻¹ s⁻¹

C[C@H](NC(=O)OC(C)(C)C)C(=O)N[C@@H](C)C(=O)Nc1ccc2c(Cl)c(OCCSC(=N)N)oc(=O)c2c1 [Boc--Ala-- Ala--NH-CiTEtOIC, 7-(N-t-butyloxycarbonyl-L-alanyl-L-alanylamino)-4-chloro-3-(2-isothiureidoethoxy)isocoumarin]
kinact/KI (human thrombin): 970 M⁻¹ s⁻¹
kinact/KI (bovine thrombin): 1530 M⁻¹ s⁻¹

CC(C)(C)OC(=O)N[C@H](Cc1ccccc1)C(=O)Nc1ccc2c(Cl)c(OCCSC(=N)N)oc(=O)c2c1 [Boc-D-Phe--NH-CiTEtOIC, 7-(N-t-butyloxycarbonyl-D-phenylalanylamino)-4-chloro-3-(2-isothiureidoethoxy)isocoumarin]
percentage of inhibition [1]: 12%
kinact/KI (chymotrypsin; pH 7.5, 25° C, [I] 0.9-43 μM): 220 M⁻¹ s⁻¹
percentage of inhibition ([2]; Table IX, not time dependent, at 0.34-5.0 μM): 65%
kinact/KI (cathepsin G): 35 M⁻¹ s⁻¹
percentage of inhibition (human lung tryptase): 44%
kinact/KI [3]: 3100 M⁻¹ s⁻¹
kinact/KI (rat skin tryptase): 135000 M⁻¹ s⁻¹
kinact/KI (human thrombin): 1090 M⁻¹ s⁻¹
kinact/KI (bovine thrombin): 1040 M⁻¹ s⁻¹

CC(C)(C)OC(=O)N[C@H](Cc1ccccc1)C(=O)Nc1ccc2c(Cl)c(OCCCSC(=N)N)oc(=O)c2c1 [Boc-D-Phe--NH-CiTPrOIC, 7-(N-t-butyloxycarbonyl-D-phenylalanylamino)-4-chloro-3-(3-isothiureidopropoxy)isocoumarin]
kinact/KI (bovine trypsin): 105000 M⁻¹ s⁻¹
kinact/KI (human thrombin): 230 M⁻¹ s⁻¹
kinact/KI (bovine thrombin): 190 M⁻¹ s⁻¹

CC(C)(C)OC(=O)N[C@@H](Cc1ccccc1)C(=O)Nc1ccc2c(Cl)c(OCCCSC(=N)N)oc(=O)c2c1 [Boc-L-Phe--NH-CiTPrOIC, 7-(N-t-butyloxycarbonyl-L-phenylalanylamino)-4-chloro-3-(3-isothiureidopropoxy)isocoumarin]
kinact/KI [2]: 6000 M⁻¹ s⁻¹
kobs/[I] (human lung tryptase): 170,000 M^-1 s^-1
kinact/KI (rat skin tryptase): 150000 M⁻¹ s⁻¹
kinact/KI (human thrombin): 520 M⁻¹ s⁻¹
kinact/KI (bovine thrombin): 330 M⁻¹ s⁻¹

CC(=O)Nc1ccc2c(Cl)c(OCCCSC(=N)N)oc(=O)c2c1 [CH3 CONH-CiTPrOIC, 7-(acetylamino)-4-chloro-3-(3-isothiureidopropoxy)isocoumarin]
t1/2 for spontaneous hydrolysis [4]: 1.13 h
kinact/KI (bovine trypsin): 107000 M⁻¹ s⁻¹
kinact/KI (chymotrypsin; pH 7.5, 25° C, [I] 0.9-43 μM): 5200 M⁻¹ s⁻¹
kinact/KI [2]: 7000 M⁻¹ s⁻¹
kinact/KI (cathepsin G): 31 M⁻¹ s⁻¹
percentage of inhibition (human lung tryptase): 60%
kinact/KI [3]: 200 M⁻¹ s⁻¹
kinact/KI (rat skin tryptase): 99000 M⁻¹ s⁻¹
kinact/KI (human thrombin): 310 M⁻¹ s⁻¹
kinact/KI (bovine thrombin): 420 M⁻¹ s⁻¹

N=C(N)SCCCOc1oc(=O)c2cc(NC(=O)[C@H](N)Cc3ccccc3)ccc2c1Cl [D-Phe--NH-CiTPrOIC, 7-(D-phenylalanylamino)-4-chloro-3-(3-isothiureidopropoxy)isocoumarin]
kinact/KI (bovine trypsin): 68300 M⁻¹ s⁻¹
kinact/KI (human thrombin): 220 M⁻¹ s⁻¹
kinact/KI (bovine thrombin): 180 M⁻¹ s⁻¹

N=C(N)SCCCOc1oc(=O)c2cc(NC(=O)[C@@H](N)Cc3ccccc3)ccc2c1Cl [L-Phe--NH-CiTPrOIC, 7-(L-phenylalanylamino)-4-chloro-3-(3-isothiureidopropoxy)isocoumarin]
kinact/KI [2]: 11000 M⁻¹ s⁻¹
percentage of inhibition (human lung tryptase): 54%
kinact/KI (rat skin tryptase): 96000 M⁻¹ s⁻¹
kinact/KI (human thrombin): 470 M⁻¹ s⁻¹
kinact/KI (bovine thrombin): 400 M⁻¹ s⁻¹

N=C(N)SCCOc1oc(=O)c2cc(NC(=O)Nc3cccc4ccccc34)ccc2c1Cl [Naphthyl-NHCONH-CiTEtOIC, 7-(1-naphthylcarbamoylamino)-4-chloro-3-(2-isothiureidoethoxy)isocoumarin]
kinact/KI (human thrombin): 5800 M⁻¹ s⁻¹
kinact/KI (bovine thrombin): 17500 M⁻¹ s⁻¹

N=C(N)SCCCOc1oc(=O)c2cc(NC(=O)CCc3ccccc3)ccc2c1Cl [PhCH2 CH2 CONH-CiTPrOIC, 7-(3-phenylpropionylamino)-4-chloro-3-(3-isothiureidopropoxy)isocoumarin]
t1/2 for spontaneous hydrolysis [4]: 1.1 h
kinact/KI (bovine trypsin): 87900 M⁻¹ s⁻¹
kinact/KI [2]: 15000 M⁻¹ s⁻¹
kobs/[I] (human lung tryptase): 180,000 M^-1 s^-1
kinact/KI (rat skin tryptase): 170000 M⁻¹ s⁻¹
kinact/KI (human thrombin): 630 M⁻¹ s⁻¹
kinact/KI (bovine thrombin): 820 M⁻¹ s⁻¹

N=C(N)SCCCOc1oc(=O)c2cc(NC(=O)Cc3ccccc3)ccc2c1Cl [PhCH2 CONH-CiTPrOIC, 7-(phenylacetylamino)-4-chloro-3-(3-isothiureidopropoxy)isocoumarin]
t1/2 for spontaneous hydrolysis [4]: 1.02 h
kinact/KI (bovine trypsin): 165000 M⁻¹ s⁻¹
kinact/KI (chymotrypsin; pH 7.5, second order rate, equal molar enzyme and inhibitor): 260000 M⁻¹ s⁻¹
kinact/KI [2]: 9000 M⁻¹ s⁻¹
kinact/KI (cathepsin G): 64 M⁻¹ s⁻¹
kobs/[I] (human lung tryptase): 140,000 M^-1 s^-1
kinact/KI [3]: 130 M⁻¹ s⁻¹
kinact/KI (rat skin tryptase): 145000 M⁻¹ s⁻¹
kinact/KI (human thrombin): 610 M⁻¹ s⁻¹
kinact/KI (bovine thrombin): 600 M⁻¹ s⁻¹

N=C(N)SCCOc1oc(=O)c2cc(NC(=S)Nc3ccccc3)ccc2c1Cl [PhNHCSNH-CiTEtOIC, 7-phenylthiocarbamoylamino-4-chloro-3-(2-isothiureidoethoxy)isocoumarin]
kinact/KI (human thrombin): 21400 M⁻¹ s⁻¹

N=C(N)SCCOc1oc(=O)c2cc(NC(=S)Nc3cccc(C(=O)O)c3)ccc2c1Cl [m-Carboxy-PhNHCSNH-CiTEtOIC, 7-(m-carboxyphenylthiocarbamoyl)amino-4-chloro-3-(2-isothiureidoethoxy)isocoumarin]
kinact/KI (human thrombin): 17500 M⁻¹ s⁻¹
